The values that follow come from patent US11759461B2, “Small molecule inhibitors of cancer stem cells and mesenchymal cancer types” (The Scripps Research Institute, priority 2017, dated 2023).

The test system of this experiment is FOXC2-expressing HMLER cells. The experiment is described as follows: Cell Titer Glo viability of FOXC2-HMLER cells (high throughput screen and 10-point response). It counts as cell-based. The following applies: Homo sapiens; scored relative to parent compound 2; 72 hours; read-out: Activity Score, inhibition of FOXC2-expressing HMLER cells by Formula II compounds. The procedure:
For high throughput screening, FOXC2-HMLER and HMLER cells were plated at 10^3 cells per well in white 384-well plates in 50 μL of MEGM medium (Lonza). Cells were allowed to attach for one hour before compound was transferred to each well as a DMSO solution using a 100 nL pintool head affixed to a PerkinElmer FX instrument. After 72-hour incubation, 30 μL of a Cell Titer Glo solution (diluted 1:6 in water, Promega) was dispensed into each well and luminance values were recorded using an Envision plate reader. […] All other miniaturized, selective viability experiments were performed as above using the indicated growth medium.
More specifically, in the high throughput screening assay above, each cell line was plated at 1,000 cells per well in 384-well plates, treated for 72 hours with 2 μM of test compound, and the viability of each line was determined in parallel by Cell Titer Glo (Promega) luminance measurements.
For orientation: In ATP-based viability assays light output follows the ATP content of the culture.
As to `COc1ccc2cc(CNc3ccccc3)c(=O)n(CC(=O)Nc3ccc(C(C)C)cc3)c2c1` [Compound 2DS], the IC50 is more than 20 µM.

In the case of `CCc1ccc(NCc2cc3ccc(OC)cc3n(CC(=O)Nc3ccc(C)cc3)c2=O)cc1` [Compound 2DT], the IC50 is more than 20 µM.

As to `COc1ccccc1NC(=O)Cn1c(=O)c(CNc2ccccc2)cc2ccc(C)cc21` [Compound 2DU], the IC50 is more than 20 µM.

Turning to `CCc1ccc(NCc2cc3ccc(OC)cc3n(CC(=O)Nc3ccccc3OC)c2=O)cc1` [Compound 2DV], the IC50 was more than 20 µM.

For `CCc1ccc(NCc2cc3cc4c(cc3n(CC(=O)Nc3ccccc3)c2=O)OCCO4)cc1` [Compound 2DW], the IC50 was more than 20 µM.

Turning to `COc1cccc(NC(=O)Cn2c(=O)c(CNc3ccccc3)cc3ccc(OC)cc32)c1` [Compound 2DX], the IC50 was more than 20 µM.

As to `COc1ccc(NCc2cc3cc4c(cc3n(CC(=O)NCc3ccccc3)c2=O)OCCO4)cc1` [Compound 2DY], the IC50 was more than 20 µM.

`COc1ccc2cc(CNc3ccc(C)cc3)c(=O)n(CC(=O)NCc3ccc(F)cc3)c2c1` [Compound 2DZ]: the IC50 was more than 20 µM.

`CCOC(=O)c1ccccc1NC(=O)Cn1c(=O)c(CNc2ccc(C)cc2)cc2ccc(OC)cc21` [Compound 2D]: the IC50 lay in the range of 1 to 20 µM.

Regarding `CCc1ccc(NCc2cc3ccc(OC)cc3n(CC(=O)NCc3ccccc3)c2=O)cc1` [Compound 2EA], the IC50 was more than 20 µM.

For the compound `COc1ccc2cc(CNc3ccc(C)cc3)c(=O)n(CC(=O)Nc3ccccc3Cl)c2c1` [Compound 2EB], the IC50 was more than 20 µM.

Regarding `CCc1ccc(NCc2cc3cc(OC)c(OC)cc3n(CC(=O)Nc3ccc(C)c(C)c3)c2=O)cc1` [Compound 2EC], the IC50 was more than 20 µM.

Consider `COc1ccc2cc(CNc3ccccc3)c(=O)n(CC(=O)Nc3cccc(C)c3)c2c1` [Compound 2ED], for which the IC50 is more than 20 µM.

On to `COc1ccc2cc(CNc3ccccc3)c(=O)n(CC(=O)Nc3cccc(C(F)(F)F)c3)c2c1` [Compound 2EE], for which the IC50 is more than 20 µM.

Take `COc1ccccc1NC(=O)Cn1c(=O)c(CNc2ccccc2)cc2cc3c(cc21)OCCO3` [Compound 2EF]: the IC50 was more than 20 µM.

Take `COc1ccc2cc(CNc3ccccc3)c(=O)n(CC(=O)Nc3ccc4c(c3)OCCO4)c2c1` [Compound 2EG]: the IC50 was more than 20 µM.

As to `COc1cc2cc(CNc3ccccc3)c(=O)n(CC(=O)Nc3cccc(C)c3)c2cc1OC` [Compound 2EH], the IC50 was more than 20 µM.

Take `COc1ccc(NC(=O)Cn2c(=O)c(CNc3ccc(C)cc3)cc3ccc(OC)cc32)cc1` [Compound 2EI]: the IC50 is more than 20 µM.

Turning to `COc1ccc2cc(CNc3ccccc3)c(=O)n(CC(=O)Nc3ccc(F)c(F)c3)c2c1` [Compound 2EJ], the IC50 was more than 20 µM.

Regarding `CCc1ccc(NCc2cc3ccc(OC)cc3n(CC(=O)Nc3ccc(C(C)C)cc3)c2=O)cc1` [Compound 2EK], the IC50 is more than 20 µM.

Take `COc1ccc2cc(CNc3ccc(C)cc3)c(=O)n(CC(=O)Nc3cccc(C)c3)c2c1` [Compound 2EL]: the IC50 is more than 20 µM.

Regarding `COc1ccc(NCc2cc3cc(OC)c(OC)cc3n(CC(=O)Nc3ccccc3C)c2=O)cc1` [Compound 2EM], the IC50 is more than 20 µM.

In the case of `COc1ccc2cc(CNc3ccccc3)c(=O)n(CC(=O)Nc3ccc(C)cc3C)c2c1` [Compound 2EN], the IC50 is more than 20 µM.

Turning to `COc1ccc(NCc2cc3ccc(OC)cc3n(CC(=O)Nc3ccc(C)c(Cl)c3)c2=O)cc1` [Compound 2EO], the IC50 was more than 20 µM.

On to `COc1cc2cc(CNc3ccccc3)c(=O)n(CC(=O)Nc3ccccc3)c2cc1OC` [Compound 2EP], for which the IC50 is more than 20 µM.

Consider `O=C(Cn1c(=O)c(CNc2ccccc2)cc2cc3c(cc21)OCCO3)Nc1ccccc1` [Compound 2EQ], for which the IC50 is more than 20 µM.

Regarding `COc1ccc2cc(CNc3ccc(C)cc3)c(=O)n(CC(=O)Nc3ccc(C(C)C)cc3)c2c1` [Compound 2ER], the IC50 is more than 20 µM.

Turning to `COc1ccccc1NC(=O)Cn1c(=O)c(CNc2ccccc2)cc2cc(OC)c(OC)cc21` [Compound 2ES], the IC50 was more than 20 µM.
